Molecular target: T1, human PAH with the R408W mutation (Homo sapiens, UniProt P00439, R408W)
T1 construct: expressed in transfected cells
T1 sequence (P00439 1-452 R408W): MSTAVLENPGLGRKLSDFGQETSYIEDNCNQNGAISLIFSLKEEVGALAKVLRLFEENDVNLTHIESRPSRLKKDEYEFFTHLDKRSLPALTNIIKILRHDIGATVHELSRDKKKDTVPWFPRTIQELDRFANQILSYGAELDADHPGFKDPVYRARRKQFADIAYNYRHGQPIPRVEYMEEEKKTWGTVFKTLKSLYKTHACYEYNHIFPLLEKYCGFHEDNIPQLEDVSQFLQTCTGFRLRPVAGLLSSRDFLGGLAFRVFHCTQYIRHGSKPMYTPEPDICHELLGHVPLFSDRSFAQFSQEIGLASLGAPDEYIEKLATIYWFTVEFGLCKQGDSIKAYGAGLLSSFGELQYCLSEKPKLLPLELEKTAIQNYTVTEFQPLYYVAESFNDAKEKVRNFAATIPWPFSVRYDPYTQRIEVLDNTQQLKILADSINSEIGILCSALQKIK
Assay: Cell Based Phenylalanine Flux Assay
Conditions: A375 cells expressing human R408W PAH; 24 hrs with compound; 13C-Tyrosine by LC-MS; average where tested multiple times; read-out: AC50

SMILES	AC50
O=C(C1CN(c2ccccn2)C1)N1CCc2[nH]cnc2C1c1nc2ccccc2s1 (stereo not drawn) [listing 1 of 2 here]	> 5 µM
COCc1ncc(C(=O)N2CCc3[nH]cnc3C2c2nc3ccccc3s2)o1 (stereo not drawn) [listing 1 of 2 here]	> 5 µM
Cn1ncc(C(=O)N2CCc3[nH]cnc3C2c2nc3ccccc3s2)n1 (stereo not drawn) [listing 1 of 2 here]	> 5 µM
CS(=O)(=O)c1ncoc1C(=O)N1CCc2[nH]cnc2C1c1nc2ccccc2s1 (stereo not drawn) [listing 1 of 2 here]	> 5 µM
O=C(c1nnc(CCN2CCOCC2)o1)N1CCc2[nH]cnc2C1c1nc2ccccc2s1 (stereo not drawn) [listing 1 of 2 here]	> 5 µM
O=C(c1nnc(CCCN2CCOCC2)o1)N1CCc2[nH]cnc2C1c1nc2ccccc2s1 (stereo not drawn) [listing 1 of 2 here]	> 5 µM
Cc1cc(C(=O)N2CCc3[nH]cnc3C2c2nc3c(F)cccc3s2)n(-c2ccc(F)cc2)n1 (stereo not drawn)	> 5 µM
Cn1nc(COC(F)(F)F)cc1C(=O)N1CCc2[nH]cnc2C1c1nc2c(F)cccc2s1 (stereo not drawn)	> 5 µM
[2H]C([2H])([2H])OCc1cc(C(=O)N2CCc3[nH]cnc3C2c2nc3c(F)cccc3s2)n(C)n1 (stereo not drawn)	> 5 µM
COCc1cc(C(=O)N2CCc3[nH]cnc3C2c2nc3c(F)cccc3s2)n(C)n1 (stereo not drawn)	> 5 µM
COCc1cc(C(=O)N2CCc3[nH]cnc3C2c2nc3c(F)cccc3s2)[nH]n1 (stereo not drawn)	> 5 µM
NC(=O)c1ncoc1C(=O)N1CCc2[nH]cnc2C1c1nc2ccccc2s1 (stereo not drawn)	> 5 µM
Cn1nc(C(N)=O)cc1C(=O)N1CCc2[nH]cnc2C1c1nc2c(F)cccc2s1 (stereo not drawn)	> 5 µM
O=C(c1nnc(CCNC2CC2)o1)N1CCc2[nH]cnc2C1c1nc2ccccc2s1 (stereo not drawn)	> 5 µM
CN(C)Cc1nc(C(=O)N2CCc3[nH]cnc3C2c2nc3ccccc3s2)no1 (stereo not drawn)	> 5 µM
COCCc1ncc(C(=O)N2CCc3[nH]cnc3C2c2nc3ccccc3s2)o1 (stereo not drawn) [listing 2 of 2 here]	1 to 5 µM
COCc1ncc(C(=O)N2CCc3[nH]cnc3C2c2nc3ccccc3s2)o1 (stereo not drawn) [listing 2 of 2 here]	1 to 5 µM
Cn1ncc(C(=O)N2CCc3[nH]cnc3C2c2nc3ccccc3s2)n1 (stereo not drawn) [listing 2 of 2 here]	1 to 5 µM
O=C(c1cc(Cl)n[nH]1)N1CCc2[nH]cnc2C1c1nc2c(F)cccc2s1 (stereo not drawn)	1 to 5 µM
Cn1nc(C(C)(C)O)cc1C(=O)N1CCc2[nH]cnc2C1c1nc2c(F)cccc2s1 (stereo not drawn) [listing 2 of 2 here]	1 to 5 µM
O=C(c1nnc(C2CC(F)(F)C2)o1)N1CCc2[nH]cnc2C1c1nc2ccccc2s1 (stereo not drawn)	1 to 5 µM

Further lines, results first:

AC50	SMILES
> 5 µM	COCCc1ncc(C(=O)N2CCc3[nH]cnc3C2c2nc3ccccc3s2)o1 (stereo not drawn) [listing 1 of 2 here]
> 5 µM	Cn1nc(C(C)(C)O)cc1C(=O)N1CCc2[nH]cnc2C1c1nc2c(F)cccc2s1 (stereo not drawn) [listing 1 of 2 here]
> 5 µM	O=C(c1nnc(CCCN2CC(F)C2)o1)N1CCc2[nH]cnc2C1c1nc2ccccc2s1 (stereo not drawn) [listing 1 of 2 here]
> 5 µM	O=C(c1nnc(CCC(F)(F)F)o1)N1CCc2[nH]cnc2C1c1nc2ccccc2s1 (stereo not drawn) [listing 1 of 2 here]
> 5 µM	Cn1ncc(C(=O)N2CCc3[nH]cnc3C2c2nc3c(F)cccc3s2)c1Cl (stereo not drawn)
> 5 µM	Cn1ncc(C(=O)N2CCc3[nH]cnc3C2c2nc3c(F)cccc3s2)c1C#N (stereo not drawn)
> 5 µM	O=C(c1ccn(-c2ccccn2)n1)N1CCc2[nH]cnc2C1c1nc2c(F)cccc2s1 (stereo not drawn)
> 5 µM	Cn1nc(-c2ccccn2)cc1C(=O)N1CCc2[nH]cnc2C1c1nc2c(F)cccc2s1 (stereo not drawn)
> 5 µM	Cn1ncc(C(=O)N2CCc3[nH]cnc3C2c2nc3c(F)cccc3s2)n1 (stereo not drawn)
> 5 µM	N#Cc1nc(NCC(F)(F)F)oc1C(=O)N1CCc2[nH]cnc2C1c1nc2ccccc2s1 (stereo not drawn)
> 5 µM	Cn1nc(N)cc1C(=O)N1CCc2[nH]cnc2C1c1nc2c(F)cccc2s1 (stereo not drawn)
> 5 µM	Cn1nc(C#N)cc1C(=O)N1CCc2[nH]cnc2C1c1nc2c(F)cccc2s1 (stereo not drawn)
> 5 µM	CN(C)CCc1nnc(C(=O)N2CCc3[nH]cnc3C2c2nc3ccccc3s2)o1 (stereo not drawn)
1 to 5 µM	O=C(C1CN(c2ccc(Cl)cc2)C1)N1CCc2[nH]cnc2C1c1nc2ccccc2s1 (stereo not drawn)
1 to 5 µM	O=C(C1CN(c2ccccn2)C1)N1CCc2[nH]cnc2C1c1nc2ccccc2s1 (stereo not drawn) [listing 2 of 2 here]
1 to 5 µM	Cn1nc(-c2ccc(Cl)cc2)cc1C(=O)N1CCc2[nH]cnc2C1c1nc2c(F)cccc2s1 (stereo not drawn)
1 to 5 µM	O=C(c1cc(C(F)F)n[nH]1)N1CCc2[nH]cnc2C1c1nc2c(F)cccc2s1 (stereo not drawn)
1 to 5 µM	Cc1noc(C(=O)N2CCc3[nH]cnc3C2c2nc3ccccc3s2)n1 (stereo not drawn)
1 to 5 µM	CC(C)(O)c1cc(C(=O)N2CCc3[nH]cnc3C2c2nc3c(F)cccc3s2)[nH]n1 (stereo not drawn)
1 to 5 µM	CS(=O)(=O)c1ncoc1C(=O)N1CCc2[nH]cnc2C1c1nc2ccccc2s1 (stereo not drawn) [listing 2 of 2 here]
1 to 5 µM	O=C(c1nnc(CCN2CCOCC2)o1)N1CCc2[nH]cnc2C1c1nc2ccccc2s1 (stereo not drawn) [listing 2 of 2 here]
1 to 5 µM	O=C(c1nnc(CCCN2CC(F)C2)o1)N1CCc2[nH]cnc2C1c1nc2ccccc2s1 (stereo not drawn) [listing 2 of 2 here]
1 to 5 µM	O=C(c1nnc(CCCN2CCOCC2)o1)N1CCc2[nH]cnc2C1c1nc2ccccc2s1 (stereo not drawn) [listing 2 of 2 here]
1 to 5 µM	O=C(c1nnc(CCC(F)(F)F)o1)N1CCc2[nH]cnc2C1c1nc2ccccc2s1 (stereo not drawn) [listing 2 of 2 here]
